Drawing on patent US7754709B2 (Solvay Pharmaceuticals BV, priority 2003, dated 2010), this text covers inhibition for 13 compounds.

The term inhibition denotes the change of the read-out against control, counted positive when it falls.

What all share (assay type): cell-based
For experiment [1], the target named is T1, 17β-hydroxysteroid dehydrogenase type 3 (Homo sapiens, UniProt P37058).
T1 construct: expressed in transfected cells; host or cells: MCF-7
T1 sequence (P37058 1-310): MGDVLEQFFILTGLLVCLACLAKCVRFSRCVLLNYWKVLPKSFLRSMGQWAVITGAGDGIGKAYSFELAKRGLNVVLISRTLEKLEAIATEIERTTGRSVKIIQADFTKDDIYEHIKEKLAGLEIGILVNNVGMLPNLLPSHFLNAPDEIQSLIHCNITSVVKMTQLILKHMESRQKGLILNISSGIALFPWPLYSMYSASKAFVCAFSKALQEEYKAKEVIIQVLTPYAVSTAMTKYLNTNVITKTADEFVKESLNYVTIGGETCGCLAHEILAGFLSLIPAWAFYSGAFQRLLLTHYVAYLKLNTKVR
The experiment can be described thus: Inhibition of 17β-HSD type 3 in MCF-7 cells stably expressing the isoenzyme (HPLC, tritium labeled androstenedione). The conditions noted are these: 2 nM androstenedione, read-out: % Inhibition of the 17β-HSD enzyme type 3 (HSD3); for inhibition at 1 µM: MCF7, 1 μM compound; for inhibition at 10 µM: MCF7, 10 μM compound. From the text: (§1) Biological Testing Materials and Methods 1. Inhibition of the 17β-hydroxysteroid dehydrogenase type 1, type 2 and type 3 enzyme
(§2) The compounds were screened in respect of 17β-HSD enzyme activity in vitro on established M CF-7 cell lines, each stably expressing one of the respective 17β-HSD isoenzymes. The interconversion of substrate by each isoenzyme and the 17β-HSD inhibiting activity of chemical compounds in these cell lines were detected by HPLC system.
(§3) Varying amounts of the test compounds were incubated in the growth medium of the 17β-HSD expressing cells together tritium labeled substrate (2 nM estrone for 17β-HSD type 1; 2 nM estradiol for 17β-HSD type 2; and 2 nM androstenedione for 17β-HSD type 3). The medium samples were removed after exact incubation time and the reaction is stopped by trichloroacetic acid (TCA). The samples were analyzed by HPLC-coupled flow scintillation analysis.
(§4) For each enzyme type, the HSD-inhibiting activity of an individual test compound was calculated by comparing the conversion of a control sample without any test compound (referred to as “Negative Control”) to the (reduced) conversion of the test sample containing the particular compound to be tested (referred to as “Test Sample”).
(§5) Two concentrations of each compound were used. The number of the compound refers to the numbers indicated in the Experimental Section.

Experiment [2] addresses T2, 17β-hydroxysteroid dehydrogenase type 2 (Homo sapiens, UniProt P37059).
T2 construct: expressed in transfected cells; host or cells: MCF-7
T2 sequence (P37059 1-387): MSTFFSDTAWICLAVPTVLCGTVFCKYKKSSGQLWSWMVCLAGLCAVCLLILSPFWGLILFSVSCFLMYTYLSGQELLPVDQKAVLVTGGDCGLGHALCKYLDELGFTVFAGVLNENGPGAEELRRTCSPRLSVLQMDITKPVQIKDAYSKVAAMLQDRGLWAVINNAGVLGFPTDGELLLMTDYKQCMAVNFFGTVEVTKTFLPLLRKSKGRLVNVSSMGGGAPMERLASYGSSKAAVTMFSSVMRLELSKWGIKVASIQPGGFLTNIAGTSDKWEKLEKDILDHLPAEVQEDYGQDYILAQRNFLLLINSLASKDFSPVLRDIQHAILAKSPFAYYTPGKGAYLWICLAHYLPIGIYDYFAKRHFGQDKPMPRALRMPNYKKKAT
As to the kind of experiment: Inhibition of 17β-HSD type 2 in MCF-7 cells stably expressing the isoenzyme (HPLC, tritium labeled estradiol). To be noted: 2 nM estradiol, read-out: % Inhibition of the 17β-HSD enzyme type 2 (HSD2); for inhibition at 1 µM: MCF7, 1 μM compound; for inhibition at 10 µM: MCF7, 10 μM compound.
From the text: as §1, §2, §3, §4, §5

For experiment [3], the target named is T3, 17β-hydroxysteroid dehydrogenase type 1 (Homo sapiens, UniProt P14061).
T3 construct: expressed in transfected cells; host or cells: MCF-7
T3 sequence (P14061 1-328): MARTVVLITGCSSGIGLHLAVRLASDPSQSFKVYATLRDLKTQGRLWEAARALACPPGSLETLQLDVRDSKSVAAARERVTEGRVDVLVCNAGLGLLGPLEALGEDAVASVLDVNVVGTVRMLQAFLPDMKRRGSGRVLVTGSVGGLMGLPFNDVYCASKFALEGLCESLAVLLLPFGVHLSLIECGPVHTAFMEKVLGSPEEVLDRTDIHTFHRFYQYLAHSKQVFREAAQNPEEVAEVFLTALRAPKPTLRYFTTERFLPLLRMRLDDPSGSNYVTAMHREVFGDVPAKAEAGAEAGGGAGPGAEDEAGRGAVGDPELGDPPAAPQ
The experiment can be described thus: Inhibition of 17β-HSD type 1 in MCF-7 cells stably expressing the isoenzyme (HPLC, tritium labeled estrone). The conditions noted are these: 2 nM estrone, read-out: % Inhibition of the 17β-HSD enzyme type 1 (HSD1); for inhibition at 1 µM: MCF7, 1 μM compound; for inhibition at 10 µM: MCF7, 10 μM compound.
From the text: as §1, §2, §3, §4, §5

Turning to `CC1CCc2nc3sc4c(c3c(=O)n2CC1)CCCC4` (stereo not drawn) [Compound 14, 9-Methyl-2,3,4,7,8,9,10,11-octahydro-[1]benzothieno[2′,3′:4,5]pyrimido[1,2-a]azepin-13(1H)-one], the results for the inhibition at 1 µM in experiment [1], in experiment [2] and in experiment [3] were 27.6%, 5.9% and 12.8%, respectively. In addition, the inhibition at 10 µM amounted to 34.2% in experiment [1], 14.9% in experiment [2] and 19.6% in experiment [3].
With `CCOC(=O)C1CCCn2c1nc1sc3c(c1c2=O)CCCC3` (stereo not drawn) [Compound 15, 1,2,3,4,7,9,10,12-Octahydro-12-oxo-8H-[1]benzothieno[2,3-d]pyrido[1,2-a]pyrimidine-7-carboxylic acid ethyl ester], the inhibition at 1 µM in experiment [1] was -0.3%; in experiment [2], 10.7%; in experiment [3], 14.8%. Also, the inhibition at 10 µM was found to be 13.5% in experiment [1], 15.7% in experiment [2] and 24.5% in experiment [3].
Consider `CCOC(=O)C1CCc2nc3sc4c(c3c(=O)n2CC1)CCCC4` (stereo not drawn) [Compound 16, 1,2,3,4,7,8,9,10,11,13-Decahydro-13-oxo-[1]benzothieno[2′,3′:4,5]pyrimido[1,2-a]azepine-9-carboxylic acid ethyl ester], for which the inhibition at 1 µM in experiment [1] came to 13.6%; in experiment [2], 3%; in experiment [3] it was 17.2%. The figures for the inhibition at 10 µM in experiment [1], in experiment [2] and in experiment [3] were 22.9%, 24.8% and 18.6%, respectively.
As for `CC1CCc2nc3sc4c(c3c(=O)n2CC1)CCCC4=O` (stereo not drawn) [Compound 17, 2,3,8,9,10,11-Hexahydro-9-methyl-[1]benzothieno[2′,3′: 4,5]pyrimido[1,2-a]azepine-4,13(1H,7H)-dione], the inhibition at 1 µM in experiment [1] came to 21.6%; in experiment [2], 15.2%; in experiment [3] it was 18.4%. Further, the figures for the inhibition at 10 µM in experiment [1], in experiment [2] and in experiment [3] were 32.4%, 20.1% and 39.4%, respectively.
Take `CCOC(=O)C1CCCn2c1nc1sc3c(c1c2=O)CCCC3=O` (stereo not drawn) [Compound 18, 4,12-Dioxo-1,2,3,4,7,9,10,12-octahydro-8H-[1]benzothieno[2,3-d]pyrido[1,2-a]pyrimidine-7-carboxylic acid ethyl ester]: the results for the inhibition at 1 µM in experiment [1], in experiment [2] and in experiment [3] were -3%, 18.7% and 0.5%, respectively. In addition, the inhibition at 10 µM in experiment [1] was found to be 21.3%; in experiment [2], 23.8%; in experiment [3], 9.5%.
As to `CCOC(=O)C1CCc2nc3sc4c(c3c(=O)n2CC1)CCCC4=O` (stereo not drawn) [Compound 19, 4,13-Dioxo-1,2,3,4,7,8,9,10,11,13-decahydro-[1]benzothieno[2′,3′: 4,5]pyrimido[1,2-a]azepine-9-carboxylic acid ethyl ester], the inhibition at 1 µM was found to be 13% in experiment [1], 0.6% in experiment [2] and 10.6% in experiment [3]. Besides, the inhibition at 10 µM stood at 10.5% in experiment [1], 4.4% in experiment [2] and 33.1% in experiment [3].
On to `CC1CCc2nc3sc4c(c3c(=O)n2CC1)CCC(C=O)=C4Cl` (stereo not drawn) [Compound 20, 4-Chloro-9-methyl-1,2,7,8,9,10,11,13-octahydro-13-oxo-[1]benzothieno[2′,3′: 4,5]pyrimido [1,2-a]azepine-3-carbaldehyde], for which the inhibition at 1 µM in experiment [1] was 32%; in experiment [2] it was 11.2%; in experiment [3], 10.4%. Besides, the values for the inhibition at 10 µM in experiment [1], in experiment [2] and in experiment [3] were 100%, 6.2% and 45.7%, respectively.
In the case of `CCOC(=O)C1CCc2nc3sc4c(c3c(=O)n2CC1)CCC(C=O)=C4Cl` (stereo not drawn) [Compound 21, 4-Chloro-3-formyl-1,2,7,8,9,10,11,13-octahydro-13-oxo-[1]benzothieno[2′,3′: 4,5]pyrimido[1,2-a]azepine-9-carboxylic acid ethyl ester], the values for the inhibition at 1 µM in experiment [1], in experiment [2] and in experiment [3] were 20%, 13.1% and 10.9%, respectively. In addition, the inhibition at 10 µM in experiment [1] worked out at 87.3%; in experiment [2] it was 32.9%; in experiment [3], 33.5%.
`CCCSC1=C(C=O)CCc2c1sc1nc3n(c(=O)c21)CCC(C(=O)OCC)CC3` (stereo not drawn) [Compound 22, 3-Formyl-1,2,7,8,9,10, 11,13-octahydro-13-oxo-4-(propylthio)-[1]benzothieno [2′,3′: 4,5]pyrimido[1,2-a]azepine-9-carboxylic acid ethyl ester]: the results for the inhibition at 1 µM in experiment [1], in experiment [2] and in experiment [3] were 25.5%, 6.8% and 24.3%, respectively. The inhibition at 10 µM turned out to be 100% in experiment [1], 16.1% in experiment [2] and 46.5% in experiment [3].
In the case of `CCCSC1=C(C=O)CCc2c1sc1nc3n(c(=O)c21)CCC(C(=O)OC)CC3` (stereo not drawn) [Compound 23, 3-Formyl-1,2,7,8,9,10,11,13-octahydro-13-oxo-4-(propylthio)-[l]benzothieno[2′,3′: 4,5] pyrimido[1,2-a]azepine-9-carboxylic acid methyl ester], the inhibition at 1 µM is 19.5% in experiment [1], 9.7% in experiment [2] and 17.4% in experiment [3]. In addition, the results for the inhibition at 10 µM in experiment [1], in experiment [2] and in experiment [3] were 89.5%, 17.7% and 64.7%, respectively.
As to `COC(=O)C1CCc2nc3sc4c(c3c(=O)n2CC1)CCC(C=O)=C4OC` (stereo not drawn) [Compound 24, 3-Formyl-4-methoxy-1,2,7,8,9,10,11,13-octahydro-13-oxo-[1]benzothieno[2′,3′: 4,5]pyrimido [1,2-a]azepine-9-carboxylic acid methyl ester], the values for the inhibition at 1 µM in experiment [1], in experiment [2] and in experiment [3] were 18%, 3.1% and 24.9%, respectively. The values for the inhibition at 10 µM in experiment [1], in experiment [2] and in experiment [3] were 59.6%, 19.3% and 32.3%, respectively.
Take `O=c1c2c3c(sc2nc2ccccn12)CCCC3` [Compound 25, 1,2,3,4-Tetrahydro-12H-[1]benzothieno[2,3-d]pyrido[1,2-a]pyrimidin-12-one]: the inhibition at 1 µM in experiment [1] was -3.2%; in experiment [2], 14%; in experiment [3], 6.2%. Besides, the inhibition at 10 µM in experiment [1] worked out at 7.9%; in experiment [2], 33.6%; in experiment [3] it was 8.7%.
`O=C1CCCc2c1sc1nc3ccccn3c(=O)c21` [Compound 26, 2,3-Dihydro-12H-[l]benzothieno[2,3-d]pyrido[1,2-a]pyrimidin-4, 12(1H)-dione]: the inhibition at 1 µM was -2.1% in experiment [1], 15.1% in experiment [2] and 6.4% in experiment [3]. Also, the inhibition at 10 µM in experiment [1] was 0.3%; in experiment [2] it was 16.4%; in experiment [3], -0.8%.
